Target: T1, γ-secretase (Homo sapiens, UniProt P49768)
T1 construct: endogenous in cells; host or cells: SKNBE2 cells carrying APP 695 wild type
Test: Screening for γ-secretase-modulating activity in SKNBE2 cells carrying the APP 695 wild type
Assay type: cell-based
Settings: SKNBE2 cells carrying APP 695 wild type
Description: Screening of the Compounds of the Invention for γ-Secretase-Modulating Activity
Screening was carried out using SKNBE2 cells carrying the APP 695—wild type, grown in DMEM/NUT-mix F12 (HAM) provided by Gibco (cat no. 31330-38) containing 5% Serum/Fe supplemented with 1% non-essential amino acids.
Cells were grown to near confluency.
The screening was performed using the assay as described in Citron et al (1997) Nature Medicine 3: 67.

2-(5-(2,4-difluorobenzylamino)-4′-(trifluoromethyl)biphenyl-3-yl)-4-methyl pentanoic acid [Compound 52]
inhibition @ 0.3 μM (0.3 μM): 0% inhi- bition @ 0.3 μM

CC(C)CC(C(=O)O)c1cc(-c2ccc(C(F)(F)F)cc2)cc(N(C)c2ccc(Cl)cc2)c1 (single isomer, unassigned) [Example 21, (R*)2-{5-[(4-Chloro-phenyl)-methyl-amino]-4′-trifluoromethyl-biphenyl-3-yl}-4-methyl-pentanoic acid]
EC50: 1130 nM

CC(C)CC(C(=O)O)c1cc(-c2ccc(C(F)(F)F)cc2)cc(N(C)c2ccc(Cl)cc2)c1 (single isomer, unassigned) [Example 22, (S*)2-{5-[(4-Chloro-phenyl)-methyl-amino]-4′-trifluoromethyl-biphenyl-3-yl}-4-methyl-pentanoic acid]
EC50: 2150 nM

CC(C)CCN(Cc1cc(-c2ccc(C(F)(F)F)cc2)cc([C@@H](CC(C)C)C(=O)O)c1)Cc1ccc(F)c(F)c1 (stereo in doubt) [Example 5, 2-(5-{[(3,4-Difluoro-benzyl)-(3-methyl-butyl)-amino]-methyl}-4′-trifluoromethyl-biphenyl-3-yl)-4-methyl-pentanoic acid]
EC50: 65 nM

CC(C)CC(C(=O)O)c1cc(-c2ccc(C(F)(F)F)cc2)cc(N2CCCc3ccc(C(F)(F)F)cc32)c1 (stereo not drawn) [Compound 26, 4-Methyl-2-[4′-trifluoromethyl-5-(7-trifluoromethyl-3,4-dihydro-2H-quinolin-1-yl)-biphenyl-3-yl]-pentanoic acid]
EC50: 360 nM

CC(C)CC(C(=O)O)c1cc(-c2ccc(Cl)c(C(F)(F)F)c2)cc(N(C)c2cc(C(F)(F)F)cc(C(F)(F)F)c2)c1 (stereo not drawn) [Compound 27, 2-[4′-Chloro-5-(N-[3,5-bis-(trifluoromethyl)phenyl]-N-methylamino)-3′-trifluoromethyl-biphenyl-3-yl]-4-methyl-pentanoic acid]
EC50: 480 nM

CC(C)CC(C(=O)O)c1cc(-c2ccc(C(F)(F)F)cc2)cc(N2CCCc3ccccc32)c1 (stereo not drawn) [Compound 28, 2-[5-(3,4-Dihydro-2H-quinolin-1-yl)-4′-trifluoromethyl-biphenyl-3-yl]-4-methyl-pentanoic acid]
inhibition at 0.3 µM (0.3 μM): 0%

CC(C)CCC(Nc1cc(-c2ccc(C(F)(F)F)cc2)cc(C(CC(C)C)C(=O)O)c1)c1cc(F)cc(F)c1 (stereo not drawn) [Compound 29, 2-{5-[1-(3,5-Difluoro-phenyl)-4-methyl-pentylamino]-4′-trifluoromethyl-biphenyl-3-yl}-4-methyl-pentanoic acid]
EC50: 300 nM

CC(C)CCC(Nc1cc(-c2ccc(C(F)(F)F)cc2)cc(C(CC(C)C)C(=O)O)c1)c1cc(C(F)(F)F)cc(C(F)(F)F)c1 (stereo not drawn) [Compound 30, 2-{5-[1-(3,5-Bis-trifluoromethyl-phenyl)-4-methyl-pentylamino]-4′-trifluoromethyl-biphenyl-3-yl}-4-methyl-pentanoic acid]
EC50: 220 nM

CC(C)CCC(Nc1cc(-c2ccc(C(F)(F)F)cc2)cc(C(CC(C)C)C(=O)O)c1)c1ccc(C(F)(F)F)cc1 (stereo not drawn) [Compound 31, 4-Methyl-2-{5-[4-methyl-1-(4-trifluoromethyl-phenyl)-pentylamino]-4′-trifluoromethyl-biphenyl-3-yl}-pentanoic acid]
EC50: 270 nM

CC(C)CCC(Nc1cc(CC(=O)O)cc(-c2ccc(C(F)(F)F)cc2)c1)c1ccc(C(F)(F)F)cc1 (stereo not drawn) [Compound 32]
inhibition at 0.3 µM (0.3 μM): 25%

CC(C)CCC(Nc1cc(CC(=O)O)cc(-c2ccc(C(F)(F)F)cc2)c1)c1cc(F)cc(F)c1 (stereo not drawn) [Compound 33]
inhibition at 0.3 µM (0.3 μM): 11%

CC(C)CC(C(=O)O)c1cc(NC2CCCc3ccccc32)cc(-c2ccc(C(F)(F)F)cc2)c1 (stereo not drawn) [Compound 34, 4-Methyl-2-[5-(1,2,3,4-tetrahydro-naphthalen-1-ylamino)-4′-trifluoromethyl-biphenyl-3-yl]-pentanoic acid]
inhibition at 0.3 µM (0.3 μM): 22%

CC(C)CC(C(=O)O)c1cc(NCc2ccc(C(C)(C)C)cc2)cc(-c2ccc(C(F)(F)F)cc2)c1 (stereo not drawn) [Compound 37, 2-[5-(4-tert-Butyl-benzylamino)-4′-trifluoromethyl-biphenyl-3-yl]-4-methyl-pentanoic acid]
inhibition at 0.3 µM (0.3 μM): 18%

CC(C)CCC(Nc1cc(-c2ccc(C(F)(F)F)cc2)cc(C(CC(C)C)C(=O)O)c1)c1cc(F)c(F)c(F)c1 (stereo not drawn) [Compound 38, 4-Methyl-2-{5-[4-methyl-1-(3,4,5-trifluoro-phenyl)-pentylamino]-4′-trifluoromethyl-biphenyl-3-yl}-pentanoic acid]
EC50: 230 nM

CC(C)CCN(Cc1ccc(C(C)(C)C)cc1)c1cc(-c2ccc(C(F)(F)F)cc2)cc(C(CC(C)C)C(=O)O)c1 (stereo not drawn) [Compound 39, 2-{5-[(4-tert-Butyl-benzyl)-(3-methyl-butyl)-amino]-4′-trifluoromethyl-biphenyl-3-yl}-4-methyl-pentanoic acid]
EC50: 580 nM

CC(C)CCN(Cc1cc(F)cc(F)c1)c1cc(-c2ccc(C(F)(F)F)cc2)cc([C@@H](CC(C)C)C(=O)O)c1 [Compound 40, 2-{5-[(3,5-Difluoro-benzyl)-(3-methyl-butyl)-amino]-4′-trifluoromethyl-biphenyl-3-yl}-4-methyl-pentanoic acid]
EC50: 190 nM

CC(C)C[C@@H](C(=O)O)c1cc(NCc2ccc(OC(F)(F)F)cc2)cc(-c2ccc(C(F)(F)F)cc2)c1 [Compound 41, 4-Methyl-2-[5-(4-trifluoromethoxy-benzylamino)-4′-trifluoromethyl-biphenyl-3-yl]-pentanoic acid]
inhibition at 0.3 µM (0.3 μM): 0%

CC(C)CCN(Cc1ccc(OC(F)(F)F)cc1)c1cc(-c2ccc(C(F)(F)F)cc2)cc([C@@H](CC(C)C)C(=O)O)c1 [Compound 42, (R) 4-Methyl-2-{5-[(3-methyl-butyl)-(4-trifluoromethoxy-benzyl)-amino]-4′-trifluoromethyl-biphenyl-3-yl}-pentanoic acid]
EC50: 640 nM

CC(C)C[C@@H](C(=O)O)c1cc(NCc2cc(F)cc(F)c2)cc(-c2ccc(C(F)(F)F)cc2)c1 [Compound 43, (R) 2-[5-(3,5-Difluoro-benzylamino)-4′-trifluoromethyl-biphenyl-3-yl]-4-methyl-pentanoic acid]
inhibition at 0.3 µM (0.3 μM): 0%

CC(C)C[C@@H](C(=O)O)c1cc(NCc2ccc(C(F)(F)F)cc2)cc(-c2ccc(C(F)(F)F)cc2)c1 [Compound 44, (R) 4-Methyl-2-[4′-trifluoromethyl-5-(4-trifluoromethyl-benzylamino)-biphenyl-3-yl]-pentanoic acid]
inhibition at 0.3 µM (0.3 μM): 7%

CC(C)CCN(Cc1ccc(C(F)(F)F)cc1)c1cc(-c2ccc(C(F)(F)F)cc2)cc(C(CC(C)C)C(=O)O)c1 (stereo not drawn) [Compound 45, 4-Methyl-2-{5-[(3-methyl-butyl)-(4-trifluoromethyl-benzyl)-amino]-4′-trifluoromethyl-biphenyl-3-yl}-pentanoic acid]
EC50: 580 nM

CC(C)C[C@@H](C(=O)O)c1cc(NCc2cc(C(F)(F)F)cc(C(F)(F)F)c2)cc(-c2ccc(C(F)(F)F)cc2)c1 [Compound 46, (R) 2-[5-(3,5-Bis-trifluoromethyl-benzylamino)-4′-trifluoromethyl-biphenyl-3-yl]-4-methyl-pentanoic acid]
inhibition at 0.3 µM (0.3 μM): 6%

CC(C)C[C@@H](C(=O)O)c1cc(NCc2ccc(C#N)cc2)cc(-c2ccc(C(F)(F)F)cc2)c1 [Compound 47, (R) 2-[5-(4-Cyano-benzylamino)-4′-trifluoromethyl-biphenyl-3-yl]-4-methyl-pentanoic acid]
inhibition at 0.3 µM (0.3 μM): 0%

From patent US8247610B2, “Amine linked modulators of γ-secretase” (Janssen Pharmaceutica N.V., priority 2007, dated 2012)
